“Also recorded” adds a separate entry of the source.
What was measured:
keratinocytes = settings: cell cultures of keratinocytes; cited from earlier work
VDRmem = experiment: Rapid response (summary classification); settings: Yes/No, Tables 1 and 6
Excerpt: (§1) Table 6 identifies biological properties, such as genomic response, rapid response, agonist or antagonist function, binding of the analog to the vitamin binding protein (expressed as RCI), binding to the nuclear 1α,25(OH)2 D3 receptor (expressed as RCI) rapid response (expressed as % transcaltachia the rapid hormonal stimulation of intestinal calcium absorption) the classic vitamin D responses such as intestinal Ca^2+ absorption (ICA) and bone Ca^2+ mobilizing activity (BCM) determined in vivo in a vitamin D-deficient chick, and cell differentiation (expressed as % ED50), an assessment of the ability to promote the nuclear response of cell differentiation.

[1] = system: vitamin D-deficient chick; experiment: Intestinal Ca2+ absorption (ICA) in vitamin D-deficient chick; format: in vivo; settings: i.m.
Experimental: A primary fundamental physiological property of vitamin D and particularly 1α,25(OH)2 D3 is its ability to stimulate the intestinal absorption of calcium and facilitate the availability of dietary calcium to the organism. Intestinal absorption of the calcium is measured by the intestinal calcium absorption (ICA) assay, developed in the model of vitamin-D deficient chicks. The ICA assay was used to determine the relative capability of the tested analog to stimulate intestinal Ca^2+ absorption.
(§2) Results of the testing of the analogs of the invention in vivo by the ICA and IBM assays are shown in FIG. 9 which illustrates the capability of analogs LO, EV and HR to stimulate intestinal Ca^2+ absorption (ICA) and bone Ca^2+ mobilizing activity (BCM). In this study, the analogs of 1α,25(OH) were given i.m. to vitamin D-deficient chicks 12 hours before the assay began. The activity produced by 100 pmol of 1α,25(OH)2 D3 was set to be 100% for both ICA and BCM. The dose of the analogs required to achieve a biological response for either ICA or BCM equivalent to the 100 pmol dose of 1α,25(OH)2 D3 was calculated and converted to a percentage. Results are expressed as mean +SE of groups of seven chicks. Each assay included a negative control (-D), that is no vitamin D was present, and a positive control, where vitamin D3 (+D3) was present in 3.25 nmol. […] 1α,25(OH)2 D3 and analogs LO [14α,15α-methano-1α,25(OH)2 D3 ], EV [22-(m(dimethylhydroxymethyl)phenyl)-23,24,25,26,27-pentanor-1α-OH-D3 ] and HR [(22R)-1,25(OH)2 -22,23-diene-D3 ] were administered in 0.0065, 0.065, 0.65 and 6.5 nmol as shown.
(§3) In Vivo Assays of Intestinal Calcium Absorption and Bone Calcium Mobilization
(§4) This example describes assays used for determination of analogs biological activity in intestinal calcium absorption (ICA) and bone calcium mobilization (BCM) assays.
(§5) ICA and BCM were measured in vivo in the vitamin D-deficient chick model system according to Biochem. Pharmacol., 18: 2347 (1969).
(§6) Twelve hours before assay, the chickens, which had been placed on a zero-calcium diet 48 h before assay, were injected intramuscularly with the vitamin metabolite 1α,25(OH)2 D3 or analog (1-10,000 pmoles) dissolved in 0.1 mL of ethanol/1,2-propanediol (1:1, v/v). At the time of assay, 4.0 mg of ^40 Ca^2+ +5 μCi of ^45 Ca^2+ (New England Nuclear) were placed in the duodenum of the birds lightly anesthetized with ether. After 30 min, the birds were decapitated and the blood was collected.
The radioactivity content, which is a measure of ICA, of 0.2 mL of serum was measured in a liquid scintillation counter (Beckman LS8000) to determine the amount of ^45 Ca^2+ absorbed.

[2] = system: vitamin D-deficient chick; experiment: Bone Ca2+ mobilizing activity (BCM) in vitamin D-deficient chick; format: in vivo; settings: i.m.
Experimental: The bone calcium mobilizing (BCM) assay is also conducted in the vitamin D-deficient chick. The BCM assay determines the relative ability of the tested analog to mobilize bone calcium. The natural hormone 1α,25(OH)2 D3 is very potent in the BCM assay. For example, when 1α,25(OH)2 D3 in inappropriate amounts are used as a drug in human patients, the patient may become hypercalcemic and eventually hypercalciuria with nephrolithiasis and renal failure may develop. The BCM assay was used to determine the relative activity of the analogs of the invention to stimulate bone Ca^2+ mobilization.
as §2, §3, §4, §5, §6
BCM activity was estimated from the increase of total serum calcium concentration, as determined by atomic absorption spectrophotometry.

[3] = system: MAP-kinase p42^mapk in NB4 cells; experiment: MAP-kinase activation (p42mapk phosphorylation) in NB4 cells; format: cell-based, human; settings: 1 or 5 minutes exposure
Experimental: In order to determine whether MAP-kinase phosphorylation is specific and is altered by 1α,25(OH)2 D3, the time-dependent effects of 1α,25(OH)2 D3 on p42^mapk phosphorylation was examined using human acute promyelocytic leukemia cells (NB4). In this study, the NB4 cells, cultured in 10% charcoal-stripped fetal calf serum (FCS) medium, were treated with 1α,25(OH)2 D3 at 10^-8 M for various time periods. Cells were then extracted and the phosphorylated MAP-kinase was immunoprecipitated with anti-phosphotyrosine antibody and further analyzed by Western blot using the antibodies against p42^mapk.
The lysate was further processed for anti-phosphotyrosine immunoprecipitation. […] After transferring the proteins to the PVDF membrane, the membrane was further incubated with primary anti-p42^mapk antibodies that were (+) or were not (-) pre-exposed to MAP-kinase peptide.
This example describes assays used for measurement of MAP-kinase activity in NB4 cells.
Cell culture of NB4 cells
The cell line is characterized by a translocation involving chromosomes 15 and 17, which is typical of the classical form of APL-M3 in the French-American-British [FAB] classification. NB4 cells were cultured in DMEM/F12 medium with 10% FCS at 5% CO2 balanced air and were routinely passaged as suspension cultures and only passages 8 to 20 were used for each assay.
Immunoprecipitation of Tyrosine-Phosphorylated Proteins
NB4 cells were cultured in 60-mm diameter dishes and treated with 1,25(OH)2 D3 or analogs in 4 ml of DMEM/F12 containing 10% charcoal-stripped FCS.
Insoluble material was removed in a microcentrifuge at 14,000 rpm for 10 min. Protein concentration was determined with a protein assay kit (Bio-Rad Lab, Hercules, Calif.). For immunoprecipitation, the supernatant was incubated with bead-conjugated monoclonal anti-phosphotyrosine antibody overnight at 4° C. The immunoprecipitates containing the tyrosine-phosphorylated proteins were washed four times with freshly-prepared RIPA buffer and further eluted with 2× Laemmli gel buffer.
At this point, the samples were either stored at -20° C. for further use or processed via Western blots. Equal loading of MAP-kinase protein was determined by running the Western blots using polyclonal anti-p42^mapk antibody. For this purpose, samples were aliquoted from each cell extract before immunoprecipitation.
SDS Gel Electrophoresis and Western blot
The membrane was further immunoblotted using a rabbit anti-p42^mapk polyclonal antibody overnight at 4° C. followed by incubation with secondary horseradish peroxidase-conjugated mouse anti-rabbit antibody for 1 hr at 25° C. The phosphorylated MAP-kinase bands were then visualized by enhanced chemiluminescence (ECL). A Ultrascan LX Laser Densitometer (LKB, Bromma, Sweden) scanned the density of the immuno-phosphoprotein bands. The results were normalized by protein loading and further plotted as percent of control of the band density.

rapid responses (VDRmem) = experiment: Antagonist function (summary classification); settings: Yes/No, Tables 1 and 6
Excerpt: as §1

VDRnuc = experiment: Genomic response (summary classification); settings: Yes/No, Tables 1 and 6
Excerpt: as §1

[4] = system: chloride channels in ROS 17/2.8 cells
Experimental: In each case, at least a 3-min period was allowed after the addition of the analog to the bath for currents to reach a stable amplitude value. […] Anion currents were isolated from inward Ba^2+ currents after blockade of Ca^2+ channels with 100 μM Cd^2+.

[5] = relative to 100 pmol 1α,25(OH)2 D3 = 100%, 12 h before assay

C=C1/C(=C\C=C2/CCC[C@]3(C)[C@@H]([C@H](C)CCCC(C)(C)O)CC[C@@H]23)C[C@@H](O)C[C@@H]1O [Analog C, 1α,25-dihydroxyvitamin D3, reference compound]
production of keratin, involucrin and loricrin (keratinocytes): stimulate the production of keratin, involucrin and loricrin
Rapid Response (VDRmem): Yes
Classic Vit D Responses ICA [1, 5]: 100%
ICA (in words) ([1]; vitamin D-deficient chick): most potent stimulator of ICA and BCM
Classic Vit D Responses BCM [2, 5]: 100%
BCM (in words) ([2]; vitamin D-deficient chick): most potent stimulator of ICA and BCM
phosphorylation / activation of MAP-kinase p42mapk (in words) [3]: significantly increased phosphorylation of p42^mapk in NB4 cells
Antagonist (rapid responses (VDRmem)): No
Genomic Response (VDRnuc): Yes
opening of chloride channels (in words) ([4]; 0.05-50 nM, alone, listed as 1α,25(OH)2 D3): concentration-dependent effect on the promotion of anion currents; also recorded: agonist which opens chloride channels
cells responding with promotion of anion currents ([4]; 1α,25(OH)2 D3 alone, 14 out of 15 cells): 93%

From patent US6103709A (priority 1998, dated 2000)
